Values quoted from earlier work in patent US20140271893A1 (McNeil-PPC, Inc., priority 2013, published 2014).

Assays:
[1] = therapeutic dose
[2] = 30 mg dose administered orally over eight hours

Row | fraction of dose excreted unchanged in the urine [1] | metabolized to m-hydroxy-phenylglycol-sulfate, % of the dose [2] [%] | metabolized to m-hydroxymandelic acid, % of the dose [2] [%] | metabolized to phenylephrine-glucuronide, % of the dose [2] [%] | metabolized to phenylephrine-sulfate, % of the dose [2] [%] | SMILES
1 | Less than 9% |  |  |  |  | CC(=O)Nc1ccc(O)cc1 [acetaminophen]
2 |  | 6 | 30 | 12 | 47 | CNC[C@H](O)c1cccc(O)c1 [phenylephrine, (R)-1-(3-hydroxyphenyl)-2-methylaminoethanol]
